Experimental data published in the supplement of paper PMC10307832.

Tests used:
Experiment in all cases: relative viability (nuclei count vs DMSO), 5 days (fraction); higher = more cells survive
[1] = compound: CC1=C(N=C(N=C1N)[C@H](CC(=O)N)NC[C@@H](C(=O)N)N)C(=O)N[C@@H]([C@H](C2=CN=CN2)OC3C(C(C(C(O3)CO)O)O)OC4C(C(C(C(O4)CO)O)OC(=O)N)O)C(=O)N[C@H](C)[C@H]([C@H](C)C(=O)N[C@@H]([C@@H](C)O)C(=O)NCCC5=NC(=CS5)C6=NC(=CS6)C(=O)NCCC[S+](C)C)O [Bleomycin] + O=C(c1cc(Cc2n[nH]c(=O)c3ccccc23)ccc1F)N1CCN(C(=O)C2CC2)CC1 [Olaparib] (partner 8 µM); settings: main component drawn
How it was run: (§1)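 Dosing by pin tool came one day after lung cancer cell lines were seeded in 1536-well plates, using either one drug or a fixed anchor-drug dose plus five library-drug doses (not always all listed) in √10 steps. After 5 days, nuclei were counted on 4× images. Relative viability is treated-well nuclei count divided by vehicle-well nuclei count, and values are medians of duplicate plates.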

[2] = compound: COc1cc([C@@H]2c3cc4c(cc3[C@@H](O[C@@H]3O[C@@H]5CO[C@@H](C)O[C@H]5[C@H](O)[C@H]3O)[C@H]3COC(=O)[C@H]23)OCO4)cc(OC)c1O [Etoposide] + Cc1cc(Nc2cc(N3CCN(C)CC3)nc(Sc3ccc(NC(=O)C4CC4)cc3)n2)n[nH]1 [Tozasertib] (partner 0.1 µM)
How it was run: as §1

[3] = compound: CC1=C(N=C(N=C1N)[C@H](CC(=O)N)NC[C@@H](C(=O)N)N)C(=O)N[C@@H]([C@H](C2=CN=CN2)OC3C(C(C(C(O3)CO)O)O)OC4C(C(C(C(O4)CO)O)OC(=O)N)O)C(=O)N[C@H](C)[C@H]([C@H](C)C(=O)N[C@@H]([C@@H](C)O)C(=O)NCCC5=NC(=CS5)C6=NC(=CS6)C(=O)NCCC[S+](C)C)O [Bleomycin] + CS(=O)(=O)CCNCc1ccc(-c2ccc3ncnc(Nc4ccc(OCc5cccc(F)c5)c(Cl)c4)c3c2)o1 [Lapatinib] (partner 2 µM); settings: main component drawn
How it was run: as §1

[4] = compound: COc1cc([C@@H]2c3cc4c(cc3[C@@H](O[C@@H]3O[C@@H]5CO[C@@H](C)O[C@H]5[C@H](O)[C@H]3O)[C@H]3COC(=O)[C@H]23)OCO4)cc(OC)c1O [Etoposide] + Nc1ncn([C@H]2C[C@H](O)[C@@H](CO)O2)c(=O)n1 [Decitabine] (partner 2 µM)
How it was run: as §1

201T gave a relative viability ([1]; first compound 0.01 µM) of 0.759, a relative viability ([1]; first compound 0.03162 µM) of 0.763 and a relative viability ([1]; first compound 0.1 µM) of 0.715. It also gave a relative viability ([1]; first compound 0.3162 µM) of 0.507, a relative viability ([1]; first compound 1 µM) of 0.411 and a relative viability ([2]; first compound 0.01 µM) of 0.824. It also gave a relative viability ([2]; first compound 0.03162 µM) of 0.995, a relative viability ([2]; first compound 0.1 µM) of 0.886 and a relative viability ([2]; first compound 0.3162 µM) of 0.709. It also gave a relative viability ([2]; first compound 1 µM) of 0.465, a relative viability ([3]; first compound 0.01 µM) of 1 and a relative viability ([3]; first compound 0.03162 µM) of 0.958. The relative viability ([3]; first compound 0.1 µM) was 0.961, the relative viability ([3]; first compound 0.3162 µM) was 0.916 and the relative viability ([3]; first compound 1 µM) was 0.78. It also gave a relative viability ([4]; first compound 0.01 µM) of 0.835, a relative viability ([4]; first compound 0.03162 µM) of 0.886 and a relative viability ([4]; first compound 0.1 µM) of 0.758. It also gave a relative viability ([4]; first compound 0.3162 µM) of 0.641 and a relative viability ([4]; first compound 1 µM) of 0.384.

A549 gave a relative viability ([1]; first compound 0.01 µM) of 0.25, a relative viability ([1]; first compound 0.03162 µM) of 0.263 and a relative viability ([1]; first compound 0.1 µM) of 0.29. The relative viability ([1]; first compound 0.3162 µM) was 0.0728, the relative viability ([1]; first compound 1 µM) was 0.0649 and the relative viability ([3]; first compound 0.01 µM) was 0.695. The relative viability ([3]; first compound 0.03162 µM) was 0.634, the relative viability ([3]; first compound 0.1 µM) was 0.38 and the relative viability ([3]; first compound 0.3162 µM) was 0.0818. The relative viability ([3]; first compound 1 µM) was 0.0645, the relative viability ([4]; first compound 0.01 µM) was 0.24 and the relative viability ([4]; first compound 0.03162 µM) was 0.326. For the same cell line, the relative viability ([4]; first compound 0.1 µM) was 0.195, the relative viability ([4]; first compound 0.3162 µM) was 0.114 and the relative viability ([4]; first compound 1 µM) was 0.0774.

A-427 was tested, and the relative viability ([1]; first compound 0.01 µM) was 0.58, the relative viability ([1]; first compound 0.03162 µM) was 0.566 and the relative viability ([1]; first compound 0.1 µM) was 0.455. For the same cell line, the relative viability ([1]; first compound 0.3162 µM) was 0.274, the relative viability ([1]; first compound 1 µM) was 0.24 and the relative viability ([2]; first compound 0.01 µM) was 0.213. The relative viability ([2]; first compound 0.03162 µM) was 0.224, the relative viability ([2]; first compound 0.1 µM) was 0.219 and the relative viability ([2]; first compound 0.3162 µM) was 0.165. It also gave a relative viability ([2]; first compound 1 µM) of 0.147, a relative viability ([3]; first compound 0.01 µM) of 0.797 and a relative viability ([3]; first compound 0.03162 µM) of 0.874. For the same cell line, the relative viability ([3]; first compound 0.1 µM) was 0.776, the relative viability ([3]; first compound 0.3162 µM) was 0.369 and the relative viability ([3]; first compound 1 µM) was 0.169. For the same cell line, the relative viability ([4]; first compound 0.01 µM) was 0.54, the relative viability ([4]; first compound 0.03162 µM) was 0.549 and the relative viability ([4]; first compound 0.1 µM) was 0.477. For the same cell line, the relative viability ([4]; first compound 0.3162 µM) was 0.354 and the relative viability ([4]; first compound 1 µM) was 0.275.

ABC-1 was tested, and the relative viability ([1]; first compound 0.01 µM) was 0.851, the relative viability ([1]; first compound 0.03162 µM) was 1.04 and the relative viability ([1]; first compound 0.1 µM) was 0.849. For the same cell line, the relative viability ([1]; first compound 0.3162 µM) was 0.818, the relative viability ([1]; first compound 1 µM) was 0.232 and the relative viability ([2]; first compound 0.01 µM) was 0.176. The relative viability ([2]; first compound 0.03162 µM) was 0.202, the relative viability ([2]; first compound 0.1 µM) was 0.186 and the relative viability ([2]; first compound 0.3162 µM) was 0.199. The relative viability ([2]; first compound 1 µM) was 0.195, the relative viability ([3]; first compound 0.01 µM) was 1.01 and the relative viability ([3]; first compound 0.03162 µM) was 1.03. The relative viability ([3]; first compound 0.1 µM) was 1.23, the relative viability ([3]; first compound 0.3162 µM) was 1.01 and the relative viability ([3]; first compound 1 µM) was 0.961. The relative viability ([4]; first compound 0.01 µM) was 1.08, the relative viability ([4]; first compound 0.03162 µM) was 0.939 and the relative viability ([4]; first compound 0.1 µM) was 0.62. For the same cell line, the relative viability ([4]; first compound 0.3162 µM) was 0.619 and the relative viability ([4]; first compound 1 µM) was 0.52.

BEN was tested, and the relative viability ([1]; first compound 0.01 µM) was 0.97, the relative viability ([1]; first compound 0.03162 µM) was 1.03 and the relative viability ([1]; first compound 0.1 µM) was 0.899. It also gave a relative viability ([1]; first compound 0.3162 µM) of 0.809, a relative viability ([1]; first compound 1 µM) of 0.733 and a relative viability ([2]; first compound 0.01 µM) of 0.463. It also gave a relative viability ([2]; first compound 0.03162 µM) of 0.503, a relative viability ([2]; first compound 0.3162 µM) of 0.483 and a relative viability ([2]; first compound 1 µM) of 0.481. It also gave a relative viability ([3]; first compound 0.01 µM) of 0.72, a relative viability ([3]; first compound 0.03162 µM) of 0.709 and a relative viability ([3]; first compound 0.1 µM) of 0.913. It also gave a relative viability ([3]; first compound 0.3162 µM) of 0.571, a relative viability ([3]; first compound 1 µM) of 0.542 and a relative viability ([4]; first compound 0.01 µM) of 0.742. For the same cell line, the relative viability ([4]; first compound 0.03162 µM) was 0.769, the relative viability ([4]; first compound 0.3162 µM) was 0.692 and the relative viability ([4]; first compound 1 µM) was 0.476.

For CAL-12T, the relative viability ([1]; first compound 0.01 µM) was 0.416, the relative viability ([1]; first compound 0.03162 µM) was 0.375 and the relative viability ([1]; first compound 0.1 µM) was 0.217. For the same cell line, the relative viability ([1]; first compound 0.3162 µM) was 0.177, the relative viability ([1]; first compound 1 µM) was 0.135 and the relative viability ([2]; first compound 0.01 µM) was 0.256. It also gave a relative viability ([2]; first compound 0.03162 µM) of 0.297, a relative viability ([2]; first compound 0.1 µM) of 0.408 and a relative viability ([2]; first compound 0.3162 µM) of 0.264. The relative viability ([2]; first compound 1 µM) was 0.28, the relative viability ([3]; first compound 0.03162 µM) was 0.557 and the relative viability ([3]; first compound 0.1 µM) was 0.454. The relative viability ([3]; first compound 0.3162 µM) was 0.218 and the relative viability ([3]; first compound 1 µM) was 0.21.

Work on COR-L23 yielded a relative viability ([1]; first compound 0.01 µM) of 0.253, a relative viability ([1]; first compound 0.03162 µM) of 0.188 and a relative viability ([1]; first compound 0.1 µM) of 0.133. It also gave a relative viability ([1]; first compound 0.3162 µM) of 0.0874, a relative viability ([1]; first compound 1 µM) of 0.0995 and a relative viability ([2]; first compound 0.01 µM) of 0.189. For the same cell line, the relative viability ([2]; first compound 0.03162 µM) was 0.236, the relative viability ([2]; first compound 0.1 µM) was 0.262 and the relative viability ([2]; first compound 0.3162 µM) was 0.145. It also gave a relative viability ([2]; first compound 1 µM) of 0.109, a relative viability ([3]; first compound 0.01 µM) of 0.707 and a relative viability ([3]; first compound 0.03162 µM) of 0.776. The relative viability ([3]; first compound 0.1 µM) was 0.294, the relative viability ([3]; first compound 0.3162 µM) was 0.14 and the relative viability ([3]; first compound 1 µM) was 0.115. The relative viability ([4]; first compound 0.01 µM) was 0.407, the relative viability ([4]; first compound 0.03162 µM) was 0.471 and the relative viability ([4]; first compound 0.1 µM) was 0.337. The relative viability ([4]; first compound 0.3162 µM) was 0.377 and the relative viability ([4]; first compound 1 µM) was 0.176.

Cell Line COR-L 105 has a relative viability ([1]; first compound 0.01 µM) of 0.614, a relative viability ([1]; first compound 0.03162 µM) of 0.518 and a relative viability ([1]; first compound 0.1 µM) of 0.526. It also gave a relative viability ([1]; first compound 0.3162 µM) of 0.417, a relative viability ([1]; first compound 1 µM) of 0.352 and a relative viability ([2]; first compound 0.01 µM) of 0.385. For the same cell line, the relative viability ([2]; first compound 0.03162 µM) was 0.345, the relative viability ([2]; first compound 0.1 µM) was 0.291 and the relative viability ([2]; first compound 0.3162 µM) was 0.353. It also gave a relative viability ([2]; first compound 1 µM) of 0.366, a relative viability ([3]; first compound 0.01 µM) of 0.279 and a relative viability ([3]; first compound 0.03162 µM) of 0.379. The relative viability ([3]; first compound 0.1 µM) was 0.345, the relative viability ([3]; first compound 0.3162 µM) was 0.268 and the relative viability ([3]; first compound 1 µM) was 0.294. It also gave a relative viability ([4]; first compound 0.01 µM) of 0.616, a relative viability ([4]; first compound 0.03162 µM) of 0.613 and a relative viability ([4]; first compound 0.1 µM) of 0.567. It also gave a relative viability ([4]; first compound 0.3162 µM) of 0.605 and a relative viability ([4]; first compound 1 µM) of 0.569.
